Data set [1] in a line: Hepatic intrinsic clearance following incubation in human liver microsomes. It counts as in vitro ADME. Conditions: 0.5 μM test compound, NADPH, 0-30 min, scaled to g liver. The method, then:
Hepatic Extraction Ratio from Hepatic Intrinsic Clearance Following Incubation in Human Liver Microsomes
The general procedure consists of an automated incubation system and LC-MS/MS analysis with human liver microsomes. Human liver microsomes are thawed rapidly in a waterbath at 37° C. and kept on ice until use. The human liver microsomes are diluted with 50 mM potassium phosphate buffer pH 7.4 to a protein concentration of 0.55 mg/mL. Test compounds and positive controls (Verapamil and Dextromethorphan, positive controls for CYP3A4 for CYP2D6 isoforms, respectively) are dissolved in methanol (or other appropriate solvent, if necessary) in order to obtain a 5 mM solution which is further diluted to the concentration of 50 μM. The stock solutions are prepared immediately before the test.
5 μL of 50 μM test compounds and controls are added to 445 μL-of the 0.55 mg/mL microsomes solution and the incubation mixture are pre-warmed at 37° C. for 5 minutes. The incubation reactions are initiated by adding 50 μL of pre-warmed NADPH regenerating system to the incubation mixtures. 50 μL-aliquots will be taken from the incubation mixtures at: 0, 3, 6, 9, 15 and 30 minutes and the reactions are stopped by adding 100 μL of ACN containing Rolipram, used as generic Internal Standard (IS). Samples are then diluted with 120 μL of Milli-Q water and centrifuged at 3000 rpm for 10 minutes, prior the LC-MS/MS analysis.
The integrated peak areas for test compounds at the selected time points are divided by the respective peak areas of the IS and the percent of parent remaining is calculated by normalizing the peak area ratio of parent to IS at 0 min. Observed rate constant (kobs) for parent degradation is calculated by determining the slope of the line of the graph of the natural log of percentage parent remaining versus time of incubation. From the rate of depletion (min−1) and volume of the incubation (mL), clearance is estimated. This is scaled for the protein in the incubation relative to that in the intact liver, for all species (mL/min/g liver).
Values for the Human in vitro Clint are expressed as mL/min/g liver.
Assuming a liver weight of 25.7 g/kg and a liver blood flow of 20.7 mL/min/kg, the hepatic extraction ratio, Eh, can be derived from the Human in vitro Clint:
E.g. a Human in vitro Clint of 2.4 mL/min/g liver corresponds to a hepatic extraction ratio of 75%.
Some compounds of the present invention were tested according to example 101.

Data set [2] concerns the target T1, NK1 Receptor (Homo sapiens, UniProt P25103).
T1 construct: Measurement of NK1 Receptor Mediated Intracellular [Ca^2+]; Mobilization in U251 MG Cells Using FLIPR; endogenous in cells; host or cells: U251 MG cells
Kind of data set: NK1 receptor mediated intracellular [Ca2+] mobilization in U251 MG cells using FLIPR. It counts as cell-based. Conditions: antagonism of Substance P (EC80), Fluo-4, read-out: NK1R mediated intracellular [Ca^2+] mobilization IC 50. How it is done: Measurement of NK1 Receptor Mediated Intracellular [Ca^2+] Mobilization in U251 MG Cells Using FLIPR
U251 MG cells were seeded into black walled clear-bottom 384-well plates (Greiner Bio-One GmbH, Frickenhausen, Germany) at a density of 15,000 cells/well in 50 μl culture medium and cultured overnight in a 37° C. 5% CO2 incubator. The cells were then loaded with the calcium sensitive dye Fluo-4 (Invitrogen) at 1 μM in buffer, containing 0.04% Pluronic F-127 (Sigma-Aldrich), and 2.5 mM probenecid (Sigma-Aldrich) for 60 min in a humidified atmosphere of 5% CO2. Thereafter, cells were washed three times in washing buffer containing 20 mM HEPES and 2.5 mM probenecid pH 7.3. Serial dilutions of test compounds in assay buffer containing 2% dimethyl sulfoxide (final concentration in the cell plate is 0.5% DMSO) and/or agonist were then automatically pipetted into each test well, and the peak fluorescence intensity was recorded (lex, 488 nm; lem, 540 nm) by the FLIPR instrument (Molecular Devices) for approximately 5 min. To measure antagonist potency, cell plates were first incubated with the test compound and intracellular fluorescence recorded for 5 minutes to check a potential agonist effect of the test compound. Cell plates were quickly removed from the FLIPR instrument and incubated for additional 10 minutes at 37° C. before being moved back to the FLIPR instrument for Substance P (EC80) addition. The response was measured as the peak relative fluorescence change after agonist addition.
Compound relative %-effect was normalized to the maximal response evoked by 100 nM Aprepitant in presence of the EC80 of Substance P and the antagonist potency determined by non-linear regression using GraphPad Prism (version 5) or the four-parameter logistic model in XLfit (IDBS, Guilford, UK) for Microsoft Excel (Microsoft, Redmond, Wash.). The IC50 value is defined as the molar concentration of a test compound that produces a response midway between the fitted top and the fitted bottom. pIC50=−log IC50
Formula is listed as follows:
Fit (% Effect calculated)=(A+((B−A)/(1+((C/X)̂D)))) • A: bottom value • B: top value • C: test compound concentration • X: Relative IC50 • D: Hill slope coefficient
Ref: Sullivan E, Tucker E M, and Dale I L. Measurement of [Ca^2+] using the Fluorometric Imaging Plate Reader (FLIPR). Methods Mol Biol 114:125-133, 1999.
Compounds of the present invention were tested according to example 100.

T1 sequence (P25103 whole entry): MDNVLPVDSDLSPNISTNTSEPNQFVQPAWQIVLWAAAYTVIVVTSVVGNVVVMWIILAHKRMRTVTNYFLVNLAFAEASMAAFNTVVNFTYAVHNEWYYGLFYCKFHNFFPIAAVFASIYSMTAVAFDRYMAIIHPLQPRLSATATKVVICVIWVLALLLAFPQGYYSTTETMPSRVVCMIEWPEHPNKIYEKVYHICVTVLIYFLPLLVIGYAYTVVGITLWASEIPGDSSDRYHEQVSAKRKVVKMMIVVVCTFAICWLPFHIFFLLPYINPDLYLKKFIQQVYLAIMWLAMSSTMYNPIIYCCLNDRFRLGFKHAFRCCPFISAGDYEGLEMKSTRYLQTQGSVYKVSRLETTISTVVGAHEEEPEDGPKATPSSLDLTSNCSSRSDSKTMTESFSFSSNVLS

For the compound `Cc1ccc([C@@H]2[C@H]3CCC(=O)N3CCN2C(=O)N(C)Cc2cc(C(F)(F)F)cc(C(F)(F)F)c2)c(C)c1` (racemic) [Compound 3, N-(3,5-bis(trifluoromethyl)benzyl)-1-(2,4-dimethylphenyl)-N-methyl-6-oxohexahydropyrrolo[1,2-a]pyrazine-2(1H)-carboxamide], the “Human in vitro Clint” value in data set [1] is more than 200 mL/min/g. In data set [2], the IC50 was 0.297 nM.
The matching figures for `Cc1cc([C@@H](C)N(C)C(=O)N2CCN3C(=O)C(CCO)(CCO)CC3C2c2ccc(C)cc2C)cc(C(F)(F)F)c1` (mixture of isomers) [Compound 8, 1-(2,4-dimethylphenyl)-7,7-bis(2-hydroxyethyl)-N-methyl-N—((R)-1-(3-methyl-5-(trifluoromethyl)phenyl)ethyl)-6-oxo-hexahydropyrrolo[1,2-a]pyrazine-2(1H)-carboxamide]: more than 200 mL/min/g and 0.096 nM.
For `Cc1ccc([C@@H]2[C@H]3CC(CCO)(CCO)C(=O)N3CCN2C(=O)N(C)Cc2cc(C(F)(F)F)cc(C(F)(F)F)c2)c(C)c1` (racemic) [Compound 9, N-(3,5-bis(trifluoromethyl)benzyl)-1-(2,4-dimethylphenyl)-7,7-bis(2-hydroxyethyl)-N-methyl-6-oxohexahydropyrrolo[1,2-a]pyrazine-2(1H)-carboxamide] the same measures were more than 200 mL/min/g and 0.18 nM.
For the compound `Cc1ccc(C2C3CCC(=O)N3CCN2C(=O)N(C)[C@H](C)c2cc(C(F)(F)F)cc(C(F)(F)F)c2)c(C)c1` (single isomer, unassigned) [Compound 1], the “Human in vitro Clint” value in data set [1] is more than 200 mL/min/g. In addition, the IC50 in data set [2] turned out to be 0.154 nM.
The matching figures for `Cc1ccc(C2C3CCC(=O)N3CCN2C(=O)N(C)[C@H](C)c2cc(C(F)(F)F)cc(C(F)(F)F)c2)c(C)c1` (single isomer, unassigned) [Compound 2]: more than 200 mL/min/g and 7.79 nM.
Regarding `Cc1cc([C@@H](C)N(C)C(=O)N2CCN3C(=O)CCC3C2c2ccc(C)cc2C)cc(C(F)(F)F)c1` (single isomer, unassigned) [Compound 4], the “Human in vitro Clint” value in data set [1] was more than 200 mL/min/g. In data set [2], the IC50 was 9.26 nM.
As for `Cc1cc([C@@H](C)N(C)C(=O)N2CCN3C(=O)CCC3C2c2ccc(C)cc2C)cc(C(F)(F)F)c1` (single isomer, unassigned) [Compound 5], the “Human in vitro Clint” value in data set [1] is more than 200 mL/min/g. The IC50 in data set [2] was 0.437 nM.
The matching figures for `Cc1ccc(C2C3CC(CCO)(CCO)C(=O)N3CCN2C(=O)N(C)[C@H](C)c2cc(C(F)(F)F)cc(C(F)(F)F)c2)c(C)c1` (single isomer, unassigned) [Compound 6]: more than 200 mL/min/g and 1.59 nM.
The matching figures for `Cc1ccc(C2C3CC(CCO)(CCO)C(=O)N3CCN2C(=O)N(C)[C@H](C)c2cc(C(F)(F)F)cc(C(F)(F)F)c2)c(C)c1` (single isomer, unassigned) [Compound 7]: more than 200 mL/min/g and 0.08 nM.
The matching figures for `Cc1cc(F)ccc1C1C2CC(CCO)(CCO)C(=O)N2CCN1C(=O)N(C)[C@H](C)c1cc(Cl)cc(C(F)(F)F)c1` (single isomer, unassigned) [Compound 10]: more than 200 mL/min/g and 0.063 nM.
Regarding `Cc1cc(F)ccc1C1C2CC(CCO)(CCO)C(=O)N2CCN1C(=O)N(C)[C@H](C)c1cc(Cl)cc(C(F)(F)F)c1` (single isomer, unassigned) [Compound 11], the “Human in vitro Clint” value in data set [1] is more than 200 mL/min/g. The IC50 in data set [2] stood at 0.613 nM.
`Cc1cc([C@@H](C)N(C)C(=O)N2CCN3C(=O)C(CCO)(CCO)CC3C2c2ccc(F)cc2C)cc(C(F)(F)F)c1` (single isomer, unassigned) [Compound 12]: the “Human in vitro Clint” value in data set [1] is more than 200 mL/min/g. Besides, the IC50 in data set [2] turned out to be 0.622 nM.
The matching figures for `Cc1cc([C@@H](C)N(C)C(=O)N2CCN3C(=O)C(CCO)(CCO)CC3C2c2ccc(F)cc2C)cc(C(F)(F)F)c1` (single isomer, unassigned) [Compound 13]: more than 200 mL/min/g and 0.034 nM.
The matching figures for `Cc1cc(F)ccc1C1C2CC(CCO)(CCO)C(=O)N2CCN1C(=O)N(C)[C@H](C)c1cc(C(F)(F)F)cc(C(F)(F)F)c1` (single isomer, unassigned) [Compound 14]: more than 200 mL/min/g and 0.094 nM.
Consider `Cc1cc(F)ccc1C1C2CC(CCO)(CCO)C(=O)N2CCN1C(=O)N(C)[C@H](C)c1cc(C(F)(F)F)cc(C(F)(F)F)c1` (single isomer, unassigned) [Compound 15], for which the “Human in vitro Clint” value in data set [1] is 104 mL/min/g. Moreover, in data set [2], the IC50 came to 2.54 nM.
Consider `C[C@H](c1cc(C(F)(F)F)cc(C(F)(F)F)c1)N(C)C(=O)N1CCN2C(=O)CC[C@H]2[C@@H]1c1ccccc1Cl` (single isomer, unassigned) [Compound 72], for which the IC50 in data set [2] came out at 0.02 nM.
Consider `C[C@H](c1cc(C(F)(F)F)cc(C(F)(F)F)c1)N(C)C(=O)N1CCN2C(=O)CC[C@H]2[C@@H]1c1ccccc1Cl` (single isomer, unassigned) [Compound 73], for which the IC50 in data set [2] was determined as 1.38 nM.
The same measure, in the same setting: the figure for `C[C@H](c1cc(C(F)(F)F)cc(C(F)(F)F)c1)N(C)C(=O)N1CCN2C(=O)CC[C@H]2[C@@H]1c1ccc(F)cc1Cl` (single isomer, unassigned) [Compound 83] is 0.06 nM.
As to `C[C@H](c1cc(C(F)(F)F)cc(C(F)(F)F)c1)N(C)C(=O)N1CCN2C(=O)CC[C@H]2[C@@H]1c1ccc(F)cc1Cl` (single isomer, unassigned) [Compound 84], the IC50 in data set [2] was 1.15 nM.
For the compound `Cc1cccnc1[C@H]1[C@@H]2CCC(=O)N2CCN1C(=O)N(C)[C@H](C)c1cc(C(F)(F)F)cc(C(F)(F)F)c1` [Compound 43, (1R,8aS)—N—((R)-1-(3,5-bis(trifluoromethyl)phenyl)ethyl)-N-methyl-1-(3-methylpyridin-2-yl)-6-oxo-hexahydropyrrolo[1,2-a]pyrazine-2(1H)-carboxamide], the IC50 in data set [2] amounted to 2.97 nM.
On the same count and under the same terms, the figure for `Cc1ncccc1[C@H]1[C@@H]2CCC(=O)N2CCN1C(=O)N(C)[C@H](C)c1cc(C(F)(F)F)cc(C(F)(F)F)c1` [Compound 47, (1S,8aS)—N—((R)-1-(3,5-bis(trifluoromethyl)phenyl)ethyl)-N-methyl-1-(2-methylpyridin-3-yl)-6-oxo-hexahydropyrrolo[1,2-a]pyrazine-2(1H)-carboxamide] is 0.893 nM; for `Cc1n[nH]cc1[C@H]1[C@@H]2CCC(=O)N2CCN1C(=O)N(C)[C@H](C)c1cc(C(F)(F)F)cc(C(F)(F)F)c1` [Compound 60, (1S,8aS)—N—((R)-1-(3,5-bis(trifluoromethyl)phenyl)ethyl)-N-methyl-1-(3-methyl-1H-pyrazol-4-yl)-6-oxohexahydropyrrolo[1,2-a]pyrazine-2(1H)-carboxamide] it is 31.8 nM.

For the origin of these results see patent publication US20160207930A1 (LEO PHARMA A/S, priority 2013, published 2016).
